The values that follow come from PubChem BioAssay AID246 (DTP/NCI, 2004).

The assay concerns BDF1 mice, P1081 chloroleukemia ip, survival T/C. Put plainly: NCI In Vivo Anticancer Drug Screen. Data for tumor model P1081 Chloroleukemia (intraperitoneal) in B6D2F1 (BDF1) mice. Conditions: endpoint: mean survival time, higher = longer survival. The procedure:
The antitumor activity of compounds was measured in mice bearing transplantable tumors. Survival or tumor size were measured and the results are expressed as the measurement made in the treated group (T) divided by the measurement made in the vehicle treated control group (C). The tumor model used in this assay is P1081 Chloroleukemia (intraperitoneal) in B6D2F1 (BDF1) mice

Setting [1] is: dose: 10.0 mg/kg/injection, schedule: Q01DX010 (ip), vehicle: saline.
[2] abbreviates: dose: 0.25 mg/kg/injection, schedule: Q01DX Z (ip), vehicle: carboxymethylcellulose (CMC).
Where [3] appears, read: dose: 0.5 mg/kg/injection, schedule: Q01DX Z (ip), vehicle: carboxymethylcellulose (CMC).
Where [4] appears, read: dose: 62.5 mg/kg/injection, schedule: Q01DX010 (ip), vehicle: saline.
The mark [5] stands for this setting: dose: 125.0 mg/kg/injection, schedule: Q01DX010 (ip), vehicle: saline.
[6] abbreviates: dose: 62.5 mg/kg/injection, schedule: Q01DX Z (sc), vehicle: steriod suspending solution.
[7] abbreviates: dose: 125.0 mg/kg/injection, schedule: Q01DX Z (sc), vehicle: steriod suspending solution.
[8] abbreviates: dose: 250.0 mg/kg/injection, schedule: Q01DX Z (sc), vehicle: steriod suspending solution.
Where [9] appears, read: dose: 500.0 mg/kg/injection, schedule: Q01DX Z (sc), vehicle: steriod suspending solution.
Setting [10] is: dose: 1.25 mg/kg/injection, schedule: Q01DX Z (ip), vehicle: carboxymethylcellulose (CMC).
Setting [11] is: dose: 5.0 mg/kg/injection, schedule: Q01DX Z (ip), vehicle: carboxymethylcellulose (CMC).

Each structure is given as a SMILES string. Values joined by “and” are separate entries in the source; they are usually repeats but may differ in a detail not shown here. Equal entries are not always repeated. Toxic doses and inconclusive results are not listed.

As for `O=c1[nH]cc(F)c(=O)[nH]1`, the T/C runs as follows: (dose: 1.56 mg/kg/injection, schedule: Q01DX Z (ip), vehicle: saline) 99 % of control; under setting [1], 161 % of control and 165 % of control; (dose: 12.5 mg/kg/injection, schedule: Q01DX Z (ip), vehicle: saline) 150 % of control; (dose: 20.0 mg/kg/injection, schedule: Q01DX010 (ip), vehicle: saline) 200 % of control and 230 % of control; (dose: 40.0 mg/kg/injection, schedule: Q01DX010 (ip), vehicle: saline) 110 % of control and 94 % of control; (dose: 50.0 mg/kg/injection, schedule: Q01DX Z (ip), vehicle: saline) 108 % of control. Moreover, for the setting “dose: 100.0 mg/kg/injection, schedule: Q01DX Z (ip), vehicle: saline”, the T/C is 96 % of control.

With `CCCNc1ncnc2[nH]ncc12`, the T/C was 100 % of control (dose: 3.13 mg/kg/injection, schedule: Q01DX010 (ip), vehicle: saline); 90 % of control (dose: 5.0 mg/kg/injection, schedule: Q01DX Z (ip), vehicle: water); 100 % of control (dose: 6.25 mg/kg/injection, schedule: Q01DX010 (ip), vehicle: saline); 93 % of control (dose: 10.0 mg/kg/injection, schedule: Q01DX Z (ip), vehicle: water); 102 % of control (dose: 20.0 mg/kg/injection, schedule: Q01DX Z (ip), vehicle: water); 90 % of control (dose: 25.0 mg/kg/injection, schedule: Q01DX010 (ip), vehicle: saline).

For `Cn1cnc([N+](=O)[O-])c1Sc1nc(N)nc2nc[nH]c12`, the T/C is 90 % of control under setting [2]; 110 % of control under setting [3]; 111 % of control (dose: 1.0 mg/kg/injection, schedule: Q01DX Z (ip), vehicle: carboxymethylcellulose (CMC)); 110 % of control (dose: 2.0 mg/kg/injection, schedule: Q01DX Z (ip), vehicle: carboxymethylcellulose (CMC)); 86 % of control (dose: 8.0 mg/kg/injection, schedule: Q01DX Z (ip), vehicle: carboxymethylcellulose (CMC)).

Regarding `COc1ccc2c(c1OC)C(=O)O[C@@H]2[C@H]1c2c(cc3c(c2OC)OCO3)CCN1C`, the T/C reads like this: (dose: 31.3 mg/kg/injection, schedule: Q01DX010 (ip), vehicle: saline) 88 % of control and 90 % of control; under setting [4], 88 % of control and 95 % of control; under setting [5], 88 % of control and 90 % of control; (dose: 250.0 mg/kg/injection, schedule: Q01DX010 (ip), vehicle: saline) 88 % of control and 90 % of control.

As to `C[C@]12CCC(=O)C[C@H]1CC[C@@H]1[C@@H]2CC[C@@]2(C)[C@H]1CC[C@]2(C)O`, the T/C by setting is: under setting [6], 114 % of control; under setting [7], 100 % of control; under setting [8], 110 % of control; under setting [9], 112 % of control.

Consider `CCCCNc1ncnc2c1cnn2C`, for which the T/C by setting is: (dose: 16.0 mg/kg/injection, schedule: Q01DX Z (ip), vehicle: carboxymethylcellulose (CMC)) 101 % of control; (dose: 31.0 mg/kg/injection, schedule: Q01DX Z (ip), vehicle: carboxymethylcellulose (CMC)) 117 % of control; (dose: 31.25 mg/kg/injection, schedule: Q01DX010 (ip), vehicle: saline) 95 % of control and 100 % of control; under setting [4], 95 % of control and 100 % of control; (dose: 62.5 mg/kg/injection, schedule: Q01DX Z (ip), vehicle: carboxymethylcellulose (CMC)) 113 % of control; under setting [5], 90 % of control and 105 % of control.

As to `O[C@H](CN1CC1)[C@@H](O)CN1CC1`, the T/C is, setting by setting: (dose: 0.12 mg/kg/injection, schedule: Q01DX Z (ip), vehicle: carboxymethylcellulose (CMC)) 193 % of control; under setting [2], 204 % of control; under setting [3], 117 % of control; (dose: 16.0 micrograms/kg/injection, schedule: Q01DX Z (ip), vehicle: carboxymethylcellulose (CMC)) 100 % of control; (dose: 62.5 micrograms/kg/injection, schedule: Q01DX010 (ip), vehicle: saline) 316 % of control; (dose: 125.0 micrograms/kg/injection, schedule: Q01DX010 (ip), vehicle: saline) 210 % of control and 261 % of control. The T/C by setting is: (dose: 125.0 micrograms/kg/injection, schedule: Q01DX Z (ip), vehicle: carboxymethylcellulose (CMC)) 157 % of control; (dose: 250.0 micrograms/kg/injection, schedule: Q01DX010 (ip), vehicle: saline) 288 % of control; (dose: 500.0 micrograms/kg/injection, schedule: Q01DX010 (ip), vehicle: saline) 150 % of control and 177 % of control.

Regarding `NC(Cc1ccc(N(CCCl)CCCl)cc1)C(=O)O` (configuration not stated), the T/C by setting is: under setting [10], 115 % of control; (dose: 2.5 mg/kg/injection, schedule: Q01DX010 (ip), vehicle: saline) 150 % of control and 333 % of control; (dose: 5.0 mg/kg/injection, schedule: Q01DX010 (ip), vehicle: saline) 327 % of control; under setting [11], 189 % of control; under setting [1], 90 % of control; (dose: 10.0 mg/kg/injection, schedule: Q01DX Z (ip), vehicle: carboxymethylcellulose (CMC)) 90 % of control.

As for `O=c1cnn(C2OC(CO)C(O)C2O)c(=O)[nH]1` (configuration not stated), the T/C is, setting by setting: (dose: 62.5 mg/kg/injection, schedule: Q01DX Z (ip), vehicle: water) 94 % of control; (dose: 125.0 mg/kg/injection, schedule: Q01DX Z (ip), vehicle: water) 120 % of control and 90 % of control; (dose: 250.0 mg/kg/injection, schedule: Q01DX Z (ip), vehicle: water) 116 % of control and 121 % of control; (dose: 500.0 mg/kg/injection, schedule: Q01DX Z (ip), vehicle: water) 120 % of control; (dose: 1000.0 mg/kg/injection, schedule: Q01DX Z (ip), vehicle: water) 92 % of control; (dose: 1600.0 mg/kg/injection, schedule: Q01DX010 (ip), vehicle: saline) 100 % of control.

For the compound `CCN(CC)c1ccc2cc3ccc(=[N+](CC)CC)cc-3oc2c1`, the T/C by setting is: (dose: 0.31 mg/kg/injection, schedule: Q01DX Z (ip), vehicle: carboxymethylcellulose (CMC)) 101 % of control; (dose: 0.63 mg/kg/injection, schedule: Q01DX Z (ip), vehicle: carboxymethylcellulose (CMC)) 98 % of control; under setting [10], 108 % of control; (dose: 2.5 mg/kg/injection, schedule: Q01DX Z (ip), vehicle: carboxymethylcellulose (CMC)) 105 % of control and 114 % of control; under setting [11], 96 % of control.

As for `CC(=O)OCC1OC(n2ncc(=O)[nH]c2=O)C(OC(C)=O)C1OC(C)=O` (configuration not stated), the T/C by setting is: (dose: 118.0 mg/kg/injection, schedule: Q01DX Z (ip), vehicle: other) 100 % of control; (dose: 235.0 mg/kg/injection, schedule: Q01DX Z (ip), vehicle: other) 93 % of control; (dose: 468.75 mg/kg/injection, schedule: Q01DX Z (ip), vehicle: alkali diluted with saline) 115 % of control; (dose: 469.0 mg/kg/injection, schedule: Q01DX Z (ip), vehicle: other) 91 % of control; (dose: 1875.0 mg/kg/injection, schedule: Q01DX Z (ip), vehicle: alkali diluted with saline) 121 % of control; (dose: 3750.0 mg/kg/injection, schedule: Q01DX Z (ip), vehicle: alkali diluted with saline) 111 % of control.

Take `C[C@]12CCC(=O)C=C1CC[C@@H]1[C@@H]2CC[C@@]2(C)[C@H]1CC[C@]2(C)O`: the T/C under setting [6] was 101 % of control; the T/C under setting [7] is 101 % of control; the T/C under setting [8] is 106 % of control and 108 % of control; the T/C under setting [9] is 91 % of control and 101 % of control; the T/C (dose: 1000.0 mg/kg/injection, schedule: Q01DX Z (sc), vehicle: steriod suspending solution) is 100 % of control.

Take `Nc1ncnc2[nH]ncc12`: the T/C reads like this: (dose: 0.78 mg/kg/injection, schedule: Q01DX Z (ip), vehicle: carboxymethylcellulose (CMC)) 94 % of control; (dose: 1.5 mg/kg/injection, schedule: Q01DX010 (ip), vehicle: saline) 111 % of control; (dose: 1.56 mg/kg/injection, schedule: Q01DX Z (ip), vehicle: carboxymethylcellulose (CMC)) 103 % of control; (dose: 3.0 mg/kg/injection, schedule: Q01DX010 (ip), vehicle: saline) 116 % of control and 100 % of control; (dose: 3.12 mg/kg/injection, schedule: Q01DX Z (ip), vehicle: carboxymethylcellulose (CMC)) 112 % of control; (dose: 6.0 mg/kg/injection, schedule: Q01DX010 (ip), vehicle: saline) 111 % of control and 105 % of control. The T/C by setting is: (dose: 6.25 mg/kg/injection, schedule: Q01DX Z (ip), vehicle: carboxymethylcellulose (CMC)) 94 % of control; (dose: 12.0 mg/kg/injection, schedule: Q01DX010 (ip), vehicle: saline) 88 % of control and 105 % of control.
